Experimental data reported in PMC2865264 (The Journal of Biological Chemistry, 2010).

What was measured:
GST:PK50 = biological target: T1, GST:PK50 (Trypanosoma brucei, UniProt Q26801); assay: radiometric filter plate kinase assay, [gamma-33P]ATP, 10-point dilution; format: biochemical
T1 sequence (Q26801 1-437): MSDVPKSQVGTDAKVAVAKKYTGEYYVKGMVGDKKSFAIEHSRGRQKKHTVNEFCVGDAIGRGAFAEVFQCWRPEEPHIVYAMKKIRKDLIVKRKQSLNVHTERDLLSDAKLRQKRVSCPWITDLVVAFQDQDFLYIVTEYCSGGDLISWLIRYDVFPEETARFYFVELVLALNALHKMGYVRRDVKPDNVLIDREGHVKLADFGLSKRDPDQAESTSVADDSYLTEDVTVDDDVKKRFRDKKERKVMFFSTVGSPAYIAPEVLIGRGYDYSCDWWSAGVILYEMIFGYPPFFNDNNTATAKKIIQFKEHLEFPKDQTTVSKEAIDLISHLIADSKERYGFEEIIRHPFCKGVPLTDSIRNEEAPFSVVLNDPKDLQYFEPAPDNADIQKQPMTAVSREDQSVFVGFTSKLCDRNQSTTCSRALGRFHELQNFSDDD

GST:PK53 = GST:PK53 (Trypanosoma brucei, UniProt Q582J2, E440D); conditions: ATP at its Km; peptide KKLNRTLSFAEPG; Tris-HCl pH 7.0, 1 mM MnCl2, 1% DMSO
purified protein = substrate: Nc1ncnc2c1ncn2[C@@H]1O[C@H](COP(=O)(O)OP(=O)(O)OP(=O)(O)O)[C@@H](O)[C@H]1O; assay: purified protein; conditions: co-substrate peptide … varied, 15 nM enzyme, Tris-HCl pH 7.9, 3 mM MnCl2

| Molecule | IC50 (GST:PK50) | IC50 (GST:PK53) | Km (purified protein) |
| --- | --- | --- | --- |
| CN[C@@H]1C[C@H]2O[C@@](C)([C@@H]1OC)n1c3ccccc3c3c4c(c5c6ccccc6n2c5c31)C(=O)NC4 [staurosporine] | 216 ± 47 nM | 4.6 ± 0.3 nM |  |
| GST:PK50 (Trypanosoma brucei) (protein) MSDVPKSQVGTDAKVAVAKKYTGEYYVKGMVGDKKSFAIEHSRGRQKKHTVNEFCVGDAIGRGAFAEVFQCWRPEEPHIVYAMKKIRKDLIVKRKQSLNVHTERDLLSDAKLRQKRVSCPWITDLVVAFQDQDFLYIVTEYCSGGDLISWLIRYDVFPEETARFYFVELVLALNALHKMGYVRRDVKPDNVLIDREGHVKLADFGLSKRDPDQAESTSVADDSYLTEDVTVDDDVKKRFRDKKERKVMFFSTVGSPAYIAPEVLIGRGYDYSCDWWSAGVILYEMIFGYPPFFNDNNTATAKKIIQFKEHLEFPKDQTTVSKEAIDLISHLIADSKERYGFEEIIRHPFCKGVPLTDSIRNEEAPFSVVLNDPKDLQYFEPAPDNADIQKQPMTAVSREDQSVFVGFTSKLCDRNQSTTCSRALGRFHELQNFSDDD |  |  | 25.7 ± 4.8 µM |
